In the supplement of paper PMC10307832:

Tests used:
Assay in all cases: relative viability (nuclei count vs DMSO), 5 days (fraction); higher = more cells survive
Kobe2602 + Trametinib = compound: C1=CC(=CC=C1NC(=S)NNC2=C(C=C(C=C2[N+](=O)[O-])C(F)(F)F)[N+](=O)[O-])F [Kobe2602] + CC(=O)Nc1cccc(-n2c(=O)n(C3CC3)c(=O)c3c(Nc4ccc(I)cc4F)n(C)c(=O)c(C)c32)c1 [Trametinib] (partner 0.02 µM)
Summary of the method: (§1)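 Nuclei were stained with Hoechst during a one-step fixation (final 0.05% Triton X-100, 1% formaldehyde, 1 ug/ml Hoechst) carried out 5 days after dosing, then counted on 4× images. The cells, lung cancer lines in 1536-well plates, had been dosed by pin tool the day after seeding with one drug alone or a fixed anchor-drug dose plus five library-drug doses (not always all listed) in √10 steps. Relative viability is the nuclei count in treated wells divided by that in vehicle wells, and each value is the median of duplicate plates.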

Kobe2602 + OSI-027 = compound: C1=CC(=CC=C1NC(=S)NNC2=C(C=C(C=C2[N+](=O)[O-])C(F)(F)F)[N+](=O)[O-])F [Kobe2602] + COc1cccc2cc(-c3nc([C@H]4CC[C@H](C(=O)O)CC4)n4ncnc(N)c34)[nH]c12 [OSI-027] (partner 0.5 µM)
Summary of the method: as §1

Zosuquidar + Linsitinib = compound: O[C@@H](COc1cccc2ncccc12)CN1CCN([C@@H]2c3ccccc3[C@@H]3[C@H](c4ccccc42)C3(F)F)CC1 [Zosuquidar] + C[C@]1(O)C[C@@H](c2nc(-c3ccc4ccc(-c5ccccc5)nc4c3)c3c(N)nccn32)C1 [Linsitinib] (partner 1 µM)
Summary of the method: as §1

Zosuquidar + Tozasertib = compound: O[C@@H](COc1cccc2ncccc12)CN1CCN([C@@H]2c3ccccc3[C@@H]3[C@H](c4ccccc42)C3(F)F)CC1 [Zosuquidar] + Cc1cc(Nc2cc(N3CCN(C)CC3)nc(Sc3ccc(NC(=O)C4CC4)cc3)n2)n[nH]1 [Tozasertib] (partner 0.1 µM)
Summary of the method: as §1

| Cell Line | relative viability (Kobe2602 + Trametinib; first compound 0.2 µM) | relative viability (Kobe2602 + Trametinib; first compound 0.6325 µM) | relative viability (Kobe2602 + Trametinib; first compound 2 µM) | relative viability (Kobe2602 + Trametinib; first compound 6.325 µM) | relative viability (Kobe2602 + Trametinib; first compound 20 µM) | relative viability (Kobe2602 + OSI-027; first compound 0.2 µM) | relative viability (Kobe2602 + OSI-027; first compound 0.6325 µM) | relative viability (Kobe2602 + OSI-027; first compound 2 µM) | relative viability (Kobe2602 + OSI-027; first compound 6.325 µM) | relative viability (Kobe2602 + OSI-027; first compound 20 µM) | relative viability (Zosuquidar + Linsitinib; first compound 0.01 µM) | relative viability (Zosuquidar + Linsitinib; first compound 0.03162 µM) | relative viability (Zosuquidar + Linsitinib; first compound 0.1 µM) | relative viability (Zosuquidar + Linsitinib; first compound 0.3162 µM) | relative viability (Zosuquidar + Linsitinib; first compound 1 µM) | relative viability (Zosuquidar + Tozasertib; first compound 0.01 µM) | relative viability (Zosuquidar + Tozasertib; first compound 0.1 µM) | relative viability (Zosuquidar + Tozasertib; first compound 0.3162 µM) | relative viability (Zosuquidar + Tozasertib; first compound 1 µM) | relative viability (Zosuquidar + Tozasertib; first compound 0.03162 µM) |
| --- | --- | --- | --- | --- | --- | --- | --- | --- | --- | --- | --- | --- | --- | --- | --- | --- | --- | --- | --- | --- |
| NCI-H596 | 0.759 | 0.685 | 0.772 | 0.792 | 0.859 | 0.802 | 0.698 | 0.661 | 0.56 | 0.815 | 1.03 | 1.09 | 1.03 | 1.05 | 1.03 | 0.877 | 0.986 | 1.16 | 0.905 |  |
| NCI-H647 | 0.383 | 0.474 | 0.505 | 0.425 | 0.494 | 0.647 | 0.751 | 0.57 | 0.841 | 0.639 | 1.16 | 1.19 | 1.3 | 1.28 | 1.24 | 0.26 | 0.564 | 0.228 | 0.284 | 0.266 |
| NCI-H650 | 0.943 | 0.961 | 1 | 0.993 | 0.845 | 0.514 | 0.593 | 0.477 | 0.529 | 0.527 | 0.886 | 0.629 |  | 0.965 | 0.921 | 0.795 | 0.739 | 0.803 | 0.791 | 0.748 |
| NCI-H661 | 0.554 | 0.594 | 0.594 | 0.622 | 0.522 | 0.691 | 0.71 | 0.731 | 0.8 | 0.672 | 0.614 | 0.653 | 0.447 | 0.704 | 0.69 | 0.354 | 0.353 | 0.328 | 0.33 | 0.313 |
| NCI-H727 | 0.417 | 0.408 | 0.355 |  | 0.371 | 0.57 | 0.604 | 0.744 | 0.545 | 0.888 | 0.328 | 0.343 | 0.335 | 0.237 | 0.274 | 0.675 | 0.45 | 0.439 | 0.401 | 0.484 |
| NCI-H838 | 0.516 | 0.566 | 0.49 | 0.536 | 0.466 | 0.427 | 0.433 | 0.397 | 0.417 | 0.371 | 1.01 | 0.981 | 1.02 | 1.09 | 1.06 | 0.264 | 0.273 | 0.291 | 0.285 | 0.316 |
| NCI-H1355 | 0.441 | 0.464 | 0.369 | 0.415 | 0.43 | 0.395 | 0.389 | 0.411 | 0.41 | 0.441 | 0.864 | 0.798 | 0.641 | 0.87 | 0.887 | 0.527 | 0.623 | 0.612 | 0.519 | 0.542 |
| NCI-H1395 | 0.991 | 1.06 | 1.03 | 0.989 | 1.19 | 0.633 | 0.866 | 0.717 | 0.731 | 0.651 | 1.39 | 1.17 | 0.796 | 1.04 | 1.1 | 0.729 | 0.804 | 0.81 | 0.755 | 0.893 |
